Laboratory results as given in patent publication US7897568B2, “Compositions for treatment of cancer” (priority 2006, dated 2011).
Where a SMILES comes first, the peptide text is derived from it. Where no end group is shown, it is not given here.

How the values were obtained:
[1] = tested on: MCF7-SNCG cells; experiment: Flow cytometry (PI cell cycle and anti-phospho-H3) after paclitaxel; assay type: cell-based; conditions: 0.5 μM paclitaxel
Method: FIG. 7A through D show expression of EGFP-ANK disrupting the SNCG-mediated inhibition of mitotic checkpoint function as measured by microscopy and flow cytometry. The bar graphs show the expression of EGFP-ANK disrupting the SNCG-mediated inhibition of mitotic checkpoint function, using (FIG. 7A) DAPI and (FIG. 7B) anti-phospho-H^3 staining. For graphs of FIGS. 7A and 7B, the cells treated with 0.5 μM paclitaxel for 18 hours or untreated control cells were fixed with 4% paraformaldehyde for 20 minutes at room temperature. In both cases, the cells were then stained with 1 μg/ml of DAPI or 2 μg/ml anti-phospho-H3 primary and Texas Red goat anti-rabbit secondary antibodies (Invitrogen). Green fluorescent cells were identified for positive transfected cells. For each sample, 200-300 cells randomly chosen from 5 different views under a Nikon fluorescent microscope were scored for interphase, mitotic, or apoptotic based upon nuclei morphology. The data shown were derived from three separate transfections (p<0.01). […]
Two days after transfection, cells were exposed to paclitaxel for 18 hours and numbers of mitotic arrested and apoptotic cells were counted after DAPI staining. […] These cells were also probed with rabbit polyclonal anti-phospho-H^3 and the mitotic index was calculated according to the proportion of the number of H^3 stained EGFP positive cells to total EGFP positive cells (FIG. 7B). […]

[2] = biological target: T1, GST-SNCG (Homo sapiens, UniProt O76070); experiment: Surface plasmon resonance, immobilized ANK peptide with GST-SNCG analyte; assay type: binding; conditions: global fit, two-phase reaction (conformation change) model, 25° C.
T1 construct: The SNCG coding region was amplified from the human cDNA clone; made in house; host or cells: Escherichia coli BL21 (DE3)
T1 sequence (O76070 whole entry): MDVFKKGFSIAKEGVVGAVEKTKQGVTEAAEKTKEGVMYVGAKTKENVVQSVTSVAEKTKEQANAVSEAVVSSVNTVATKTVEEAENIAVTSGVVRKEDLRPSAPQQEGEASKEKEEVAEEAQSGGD
Method: Kinetics of the SNCG-ANK interaction were determined. […] Sensograms were deconvoluted globally, using a simultaneous fit for both association (ka, M^−1s^−1) and dissociation (kd, s^−1).
The binding interaction between the ANK peptide and GST-SNCG was examined in real time using a BIACORE 3000 biosensor system (Biacore Inc., NJ). Because of the relatively large amount required in this experiment, GST-SNCG, which expresses at least 2 times better than SNCG, was used. […] The changes in the refractive index at the sensor chip surface with respect to time are scaled in resonance units (RU). For proteins, every 1000 RU corresponds to a surface mass change of ˜1 ng/mm^2. All experiments were performed at 25° C. using research grade carboxymethylated dextran matrix (CM5) sensor chips (Biacore Inc.). […] Prior to all analyses the GST-SNCG and ANK peptide preparations were dialyzed against the running buffer to minimize bulk effects. […]
In all cases the analyte binding measurements were performed using running buffer 2 (running buffer 1 plus 0.1% P20 surfactant). […] Data was analyzed using BIAevaluation 3.1 software (Biacore Inc.). The data was analyzed globally, using a simultaneous fit for both association (ka, M^−1s^−1) and dissociation (kd, s^−1). The KD (M) value was calculated as kd/ka.

Row | Compound | increase in positive phosphorylated histones (anti-phospho-H3 staining) ([1]; versus MCF7-SNCG cells not containing EGFP-ANK) | increase in apoptotic/dead cell population ([1]; cell cycle analysis, versus control vector pEGFP) | kd1 [2] [s⁻¹] | kd2 [2] [s⁻¹]
1 | EGFP-ANK: ANK peptide expressed as a fusion protein with its amino-terminal linked to EGFP protein, approximately 37 kDa ({EGFP}-KGNSALHVASQHGHLGCIQTLVRYGANVTMQNHG) | 3,5 fold | almost a four-fold increase |  | 
2 | CC[C@H](C)[C@H](NC(=O)[C@H](CS)NC(=O)CNC(=O)[C@H](CC(C)C)NC(=O)[C@H](Cc1c[nH]cn1)NC(=O)CNC(=O)[C@H](Cc1c[nH]cn1)NC(=O)[C@H](CCC(N)=O)NC(=O)[C@H](CO)NC(=O)[C@H](C)NC(=O)[C@@H](NC(=O)[C@H](Cc1c[nH]cn1)NC(=O)[C@H](CC(C)C)NC(=O)[C@H](C)NC(=O)[C@H](CO)NC(=O)[C@H](CC(N)=O)NC(=O)CNC(=O)[C@H](CCCCN)NC(C)=O)C(C)C)C(=O)N[C@@H](CCC(N)=O)C(=O)N[C@H](C(=O)N[C@@H](CC(C)C)C(=O)N[C@H](C(=O)N[C@@H](CCCNC(=N)N)C(=O)N[C@@H](Cc1ccc(O)cc1)C(=O)NCC(=O)N[C@@H](C)C(=O)N[C@@H](CC(N)=O)C(=O)N[C@H](C(=O)N[C@H](C(=O)N[C@@H](CCSC)C(=O)N[C@@H](CCC(N)=O)C(=O)N[C@@H](CC(N)=O)C(=O)N[C@@H](Cc1c[nH]cn1)C(=O)NCC(N)=O)[C@@H](C)O)C(C)C)C(C)C)[C@@H](C)O [ANK peptide] (Ac-KGNSALHVASQHGHLGCIQTLVRYGANVTMQNHG-NH2) |  |  | 0.014 | 0.000802
